Values quoted from earlier work in US20190298722A1, “USE OF AN INHIBITOR OF THE DE NOVO SYNTHESIS OF PURINES, IN THE TREATMENT OF ADENYLOSUCCINATE LYASE DEFICIENCY” (ASSISTANCE PUBLIQUE-HOPITAUX DE PARIS, priority 2016, published 2019).

How the values were obtained:
[1] = system: ADSL deficiency patients; details: child; not confirmed by other studies (Jurecka et al. 2015); cited from earlier work
[2] = system: ADSL deficiency patient; details: one patient, after 9 months of treatment; cited from earlier work
[3] = system: brains of rats; details: infusion into the brains of rats; cited from earlier work

Q: With `O=c1ccn([C@@H]2O[C@H](CO)[C@@H](O)[C@H]2O)c(=O)[nH]1` [uridine] as the compound, how does the “motor coordination and seizure control” value [1] read?
A: improvement

Q: With `O=C[C@H](O)[C@H](O)[C@H](O)CO` [D-ribose] as the compound, how does the “motor coordination and seizure control” value [1] read?
A: improvement

Q: With `C[S+](CC[C@H](N)C(=O)[O-])C[C@H]1O[C@@H](n2cnc3c(N)ncnc32)[C@H](O)[C@@H]1O` (stereo partly shown) [SAMe, S-adenosyl-1-methionine] as the compound, how does the “clinical and biological parameters” value [2] read?
A: no improvement

Q: Which neuronal damage [3] does the source give for `Nc1c(C(=O)N[C@@H](CC(=O)O)C(=O)O)ncn1[C@@H]1O[C@H](CO)[C@@H](O)[C@H]1O` [SAICAr, succinylaminoimidazole carboxamide riboside] here?
A: significant neuronal damage
